Reference: patent US20090149332A1, “METHODS FOR DETERMINING THE ACTIVITY OF ADAM-TS PROTEASES USING THIOPEPTOLIDES” (SANOFI-AVENTIS DEUTSCHLAND GMBH, priority 2005, published 2009)
[ ]: non-standard residue; d: D form. The star is where a group is joined. Dnp = O=[N+]([O-])c1ccc(*)c([N+](=O)[O-])c1; Mca = COc1ccc2c(CC(=O)*)cc(=O)oc2c1; Nva = CCC[C@H](N)C(=O)O; Dap = NC[C@H](N)C(=O)O; Mob = COc1ccc(C*)cc1

Legend:
Format in all cases: biochemical
MMP-3cd [1] = target: T1, MMP-3cd (Homo sapiens, UniProt P08254); experiment: Fluorometric substrate conversion assay (Comparative Example 1); design: key to Conversion of fluorimetric substrate by MMP-3 cd (increase in the optical signal): +: Increase in the optical signal was observed over 5 minutes; details: for Conversion of fluorimetric substrate by MMP-3 cd (increase in the optical signal): fluorescence measured for 5 minutes, λex/λem per substrate
T1 construct: The catalytic domains of the human recombinant MMP-3 and MMP-8 protein, MMP-3cd and MMP-8cd; purchased Biomol International L. P. Pennsylvania, USA SE-109
T1 sequence (P08254 100-272 limits assumed): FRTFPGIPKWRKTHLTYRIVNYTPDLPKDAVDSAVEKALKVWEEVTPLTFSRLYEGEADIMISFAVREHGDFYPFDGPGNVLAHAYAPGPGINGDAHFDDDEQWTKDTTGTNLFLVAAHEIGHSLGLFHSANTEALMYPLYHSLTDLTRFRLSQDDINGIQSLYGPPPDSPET
Method: (§1) The catalytic domains of the human recombinant MMP-3 and MMP-8 protein, MMP-3cd and MMP-8cd, can be purchased from, for example, Biomol International L. P. Pennsylvania, USA; catalog number SE-109 and SE-255 respectively. The truncated forms of ADAM-TS1 and ADAM-TS4 protease can likewise be purchased from, for example, Invitek, Gesellschaft für Biotechnik & Biodesign mbH, Berlin, Germany, catalog number 30400402 and 30400102, respectively.
(§2) 100 mM tris(hydroxymethyl)aminomethane, adjusted to pH 7.5 with HCl-100
(§3) 10 mM substrates (see Table) in DMSO, immediately before use, 2 μL of the substrate stock solution were diluted with 130 μL of H2O.
(§4) MMP-3cd (2.3 μg/mL), MMP-8cd (0.6 μg/mL), ADAMTS-1 (2.3 μg/mL) and ADAMTS-4 (3.3 μg/mL) were diluted with TNCB buffer.
(§5) 10 μL of enzyme solution were mixed with 10 μL of H2O, and the reaction was started by adding 10 μL of substrate solution.
(§6) The fluorescence was measured in a TECAN Spectrafluor Plus fluorescence apparatus; Excitation/Emission (see Table). This entailed measuring the fluorescence for 5 minutes on each occasion.

MMP-8cd [2] = target: T2, MMP-8cd (Homo sapiens, UniProt P22894); experiment: as above; design: key to Conversion of fluorimetric substrate by MMP-8 cd (increase in the optical signal): +: Increase in the optical signal was observed over 5 minutes; details: for Conversion of fluorimetric substrate by MMP-8 cd (increase in the optical signal): fluorescence measured for 5 minutes, λex/λem per substrate
T2 construct: The catalytic domains of the human recombinant MMP-3 and MMP-8 protein, MMP-3cd and MMP-8cd; purchased Biomol International L. P. Pennsylvania, USA SE-255
T2 sequence (P22894 100-262 limits assumed): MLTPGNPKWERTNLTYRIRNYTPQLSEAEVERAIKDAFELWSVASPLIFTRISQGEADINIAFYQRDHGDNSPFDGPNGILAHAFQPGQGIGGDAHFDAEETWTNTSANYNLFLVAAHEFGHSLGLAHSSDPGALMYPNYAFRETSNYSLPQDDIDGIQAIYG
Method: as §1, §2, §3, §4, §5, §6

ADAMTS = experiment: Colorimetric thiopeptolide conversion assay (Example 2); details: Example 2, ADAMTS-1 and ADAMTS-4 tested
Method: (§7) TNCB Buffer (see Example 1)
(§8) ADAMTS (Invitek Gesellschaft für Biotechnik & Biodesign mbH, Berlin, Germany) 5 μg of ADAMTS-1 were diluted with 2200 μL, and 5 μg of ADAMTS-4 were diluted with 600 μl of TNCB buffer.
(§9) 1) DTNB Solution (5,5′-dithiobis(2-nitrobenzoic Acid):
(§10) A 40 mM stock solution in DMSO was prepared:
(§11) Then 27.5 μL of DTNB stock solution were diluted with 522 μL of water.
(§12) A 100 mM stock solution in DMSO was prepared. For use, 55 μL of thiopeptilide stock solution were diluted with 500 μL of TNCB buffer.
(§13) Immediately before use, 550 μl of DTNB were mixed with 550 μl of thiopeptilide.
(§14) The measurements were carried out in 96-multiwell plates (half area plates, flat bottom, clear, polystyrene, No. 3695) (Corning Costar, Acton, USA).
(§15) 10 μL of enzyme solution and 10 μL of H2O were mixed, and the reaction was started by adding 10 μL of substrate solution.
(§16) Microtiter plate photometer: Molecular Devices Sunnyvale, USA. SpectraMax 190.

MMP-8cd [3] = target: T2, MMP-8cd; experiment: Colorimetric thiopeptolide conversion assay, Ellman's reaction with DTNB (Example 2); design: key: +: Increase in the optical signal was observed over 5 minutes; details: absorption at 415 nm for 5 min
Method: as §7, §9, §10, §11, §12, §13, §14, §15, §16

MMP-3cd [4] = target: T1, MMP-3cd; experiment: as above; design: key: +: Increase in the optical signal was observed over 5 minutes; details: absorption at 415 nm for 5 min
Method: as §7, §9, §10, §11, §12, §13, §14, §15, §16

ADAMTS-1 = experiment: as above; design: key: +: Increase in the optical signal was observed over 5 minutes; details: absorption at 415 nm for 5 min
Method: as §7, §8, §9, §10, §11, §12, §13, §14, §15, §16

ADAMTS-4 = experiment: as above; design: key: +: Increase in the optical signal was observed over 5 minutes; details: absorption at 415 nm for 5 min
Method: as §7, §8, §9, §10, §11, §12, §13, §14, §15, §16

Compound: (7-methoxycoumarin-4-yl)acetyl-Pro-Leu-Gly-Leu-3-(2′,4′-dinitro-phenyl)-L-2,3-diaminopropionyl-Ala-Arg-NH2 [Mca-P-L-G-L-Dap(Dnp)-A-R—NH2]
- Conversion of fluorimetric substrate by MMP-3 cd (increase in the optical signal) (MMP-3cd [1]): +
- Conversion with the protease MMP-3 (in words) (MMP-3cd [1]; see experimental section): possible to convert
- Conversion of fluorimetric substrate by MMP-8 cd (increase in the optical signal) (MMP-8cd [2]): +
- Conversion with the protease MMP-8 (in words) (MMP-8cd [2]; see experimental section): possible to convert

Compound: Mca-PLA[Nva][Dap](Dnp)AR-NH2
- Conversion of fluorimetric substrate by MMP-3 cd (increase in the optical signal) (MMP-3cd [1]): +
- Conversion of fluorimetric substrate by MMP-8 cd (increase in the optical signal) (MMP-8cd [2]): +

Compound: CCCC(SC(=O)C(C)NC(=O)[C@H](CC(C)C)NC(=O)[C@@H]1CCCN1C(C)=O)C(=O)N[C@@H](Cc1c[nH]c2ccccc12)C(N)=O (stereo partly drawn) [Compound 2, Ac—P-L-A-[(S)-2-mercaptopentanoyl]-W—NH2]
- Conversion by ADAMTS (in words) (ADAMTS): not converted
- Conversion of colorimetric substrate in Ellman's reaction by MMP-8 cd (MMP-8cd [3]): +
- Conversion of colorimetric substrate in Ellman's reaction by MMP-3 cd (MMP-3cd [4]): +

Compound: Mca-GKPILFFRLK(Dnp)R-NH2
- Conversion of fluorimetric substrate by MMP-3 cd (increase in the optical signal) (MMP-3cd [1]): +

Compound: CCOC(=O)CNC(=O)[C@H](CC(C)C)NC(=O)C(CC(C)C)SC(=O)CNC(=O)[C@H](CC(C)C)NC(=O)[C@@H]1CCCN1C(C)=O (stereo partly drawn) [Compound 1, Ac—P-L-G-[(S)-2-mercapto-4-methylpentanoyl]-L-G-OEt]
- Conversion of colorimetric substrate in Ellman's reaction by ADAMTS-1 (ADAMTS-1): +
- Conversion of colorimetric substrate in Ellman's reaction by ADAMTS-4 (ADAMTS-4): +
- Conversion by ADAMTS (in words) (ADAMTS): converted
- Conversion of colorimetric substrate in Ellman's reaction by MMP-8 cd (MMP-8cd [3]): +
- Conversion of colorimetric substrate in Ellman's reaction by MMP-3 cd (MMP-3cd [4]): +

Compound: Mca-R—P—K—P—Y-A-Nva-Met-K(Dnp)-NH2
- Conversion of fluorimetric substrate by MMP-3 cd (increase in the optical signal) (MMP-3cd [1]): +
- Conversion of fluorimetric substrate by MMP-8 cd (increase in the optical signal) (MMP-8cd [2]): +

Compound: Mca-R—P—K—P—V-E-Nval-W—R—K-(Dnp)-NH2
- Conversion of fluorimetric substrate by MMP-3 cd (increase in the optical signal) (MMP-3cd [1]): +

Compound: Dnp-P-β-cyclohexyl-A-G-C(Me)-H-A-K—(N-Me-Abz)-NH2
- Conversion of fluorimetric substrate by MMP-3 cd (increase in the optical signal) (MMP-3cd [1]): +
- Conversion of fluorimetric substrate by MMP-8 cd (increase in the optical signal) (MMP-8cd [2]): +

Compound: Dnp-P-L-G-L-W-A-R—NH2 (Dnp-PLGLWAR-NH2; SMILES CC(C)C[C@H](NC(=O)CNC(=O)[C@H](CC(C)C)NC(=O)[C@@H]1CCCN1c1ccc([N+](=O)[O-])cc1[N+](=O)[O-])C(=O)N[C@@H](Cc1c[nH]c2ccccc12)C(=O)N[C@@H](C)C(=O)N[C@@H](CCCNC(=N)N)C(N)=O) [fluorimetric MMP substrate, Bachem M-1855]
- Conversion of fluorimetric substrate by MMP-3 cd (increase in the optical signal) (MMP-3cd [1]): +

Compound: NBD-eAhx-R—P—K—P-L-A-Nva-W—K(DMACA)-NH2
- Conversion of fluorimetric substrate by MMP-3 cd (increase in the optical signal) (MMP-3cd [1]): +
- Conversion of fluorimetric substrate by MMP-8 cd (increase in the optical signal) (MMP-8cd [2]): +

Compound: Mca-PLAQAV[Dap](Dnp)RSSSR-NH2
- Conversion of fluorimetric substrate by MMP-3 cd (increase in the optical signal) (MMP-3cd [1]): +

Compound: Mca-P-β-cyclohexyl-A-G-Nva-H-A-Dpa-NH2
- Conversion of fluorimetric substrate by MMP-3 cd (increase in the optical signal) (MMP-3cd [1]): +
- Conversion of fluorimetric substrate by MMP-8 cd (increase in the optical signal) (MMP-8cd [2]): +

Compound: Mca-RPLALWR[Dap](Dnp)-NH2
- Conversion of fluorimetric substrate by MMP-3 cd (increase in the optical signal) (MMP-3cd [1]): +
- Conversion of fluorimetric substrate by MMP-8 cd (increase in the optical signal) (MMP-8cd [2]): +

Compound: Mca-PLAC(Mob)WAR[Dap](Dnp)-NH2
- Conversion of fluorimetric substrate by MMP-3 cd (increase in the optical signal) (MMP-3cd [1]): +
- Conversion of fluorimetric substrate by MMP-8 cd (increase in the optical signal) (MMP-8cd [2]): +
